Structures can show the parent of a compound that is named as a salt.

Holding throughout (assay type): cell-based
One assay has as its system NCI-H460. Nature of the assay: Viability assay with NCI-H460 (CellTiter-Glo cytotoxicity assay, 72 h). The following applies: NCI-H460 cell line, 72 h after compounds addition. A digest of the protocol:
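NCI-H460 cells, RPMI 1640 + 10% FBS, seeded 1200/well and adhered overnight, then exposed to compounds at 9 points, 2-fold dilution, in triplicate, 0.5% DMSO final. Cellular ATP measured by CellTiter-Glo luminescence 72 h after addition.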

A further assay has as its system HT-29. Put plainly: Viability assay with HT-29. The conditions noted are these: HT-29, viability assay per Example 57. In short, it runs like this: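 Cells seeded 1200/well, adhered overnight, then treated with 9-point 2-fold compound dilutions in triplicate (0.5% final DMSO). Viability taken as cellular ATP by CellTiter-Glo luminescence 72 h after compound addition.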

The test system of another assay is MIA PaCa-2. Put plainly: Viability assay with MIA PaCa-2. The following applies: MIA PaCa-2, viability assay per Example 57. In short, it runs like this: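 MIA PaCa-2 cells were seeded at 1200/well, allowed to adhere overnight, then treated in triplicate with 9-point 2-fold compound dilutions at 0.5% final DMSO. Viability was measured as cellular ATP by CellTiter-Glo luminescence 72 h after compound addition.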

Consider `CCC1CCN(Cc2ccc3c(c2)c(-c2ccc(OC(F)(F)F)cc2CN)cn3CCCN)CC1` [C261; HCl], for which the EC50 in the assay with NCI-H460, with HT-29 and in the assay on MIA PaCa-2 was at most 5 µM throughout.
As for `COc1cccc(CC2CCN(Cc3ccc4c(c3)c(-c3ccc(OC(F)(F)F)cc3CN)cn4CCCN)CC2)c1` [C262; HCl], the EC50 with NCI-H460, with HT-29 and in the assay with MIA PaCa-2 was at most 5 µM each time.
As to `NCCCn1cc(-c2ccc(OC(F)(F)F)cc2CN)c2cc(S(=O)(=O)N3CCC(Nc4cccc(Cl)c4)CC3)ccc21` [C263; Formic Acid], the results for the 50% effective concentration (EC50) with NCI-H460, in the assay with HT-29 and in the assay on MIA PaCa-2 were at most 5 µM, 5 to 10 µM and at most 5 µM, respectively.
For the molecule `NCc1cc(OC(F)(F)F)ccc1-c1cn(CCCNC(=O)C2(N)CCNCC2)c2ccc(CN3CCN(Cc4ccccc4Cl)CC3)cc12` [C264; HCl], the concentration giving a half-maximal response (EC50) in the assay on NCI-H460, in the assay with HT-29 and in the assay with MIA PaCa-2 was 5 to 10 µM each time.
Take `NCCCn1cc(-c2ccc(OC(F)(F)F)cc2CN)c2cc(CN3CCOCC3)ccc21` [C265; HCl]: the EC50 in the assay with NCI-H460, in the assay on HT-29 and in the assay with MIA PaCa-2 was at most 5 µM in each case.
Take `COc1ccc(CN2CCN(Cc3ccc4c(c3)c(-c3ccc(OC(F)(F)F)cc3CN)cn4CCCN)CC2)cc1` [C266; HCl]: the EC50 with NCI-H460, with HT-29 and with MIA PaCa-2 was at most 5 µM in each case.
Turning to `NCCCn1cc(-c2ccc(OC(F)(F)F)cc2CN)c2cc(CN3CCN(Cc4cccc(OC(F)(F)F)c4)CC3)ccc21` [C267; HCl], the EC50 with NCI-H460, with HT-29 and in the assay on MIA PaCa-2 was at most 5 µM in each case.
Regarding `COc1ccccc1CN1CCN(Cc2ccc3c(c2)c2ccccc2n3CCCN)CC1` [C268; HCl], the EC50 with NCI-H460 is 5 to 10 µM; in the assay on HT-29, at most 5 µM; with MIA PaCa-2, 5 to 10 µM.
For the molecule `Cc1ccc(-c2cn(CCCN)c3ccc(CC4CCN(Cc5ccccc5Cl)CC4)cc23)c(CN)c1` [C269; Formic Acid], the EC50 in the assay with NCI-H460, in the assay on HT-29 and in the assay on MIA PaCa-2 was at most 5 µM throughout.
`CCC1CCN(S(=O)(=O)c2ccc3c(c2)c(-c2ccc(OC)cc2CN)cn3CCCN)CC1` [C270; HCl]: the EC50 with NCI-H460, in the assay with HT-29 and with MIA PaCa-2 was at most 5 µM each time.
Take `CC(=O)NCc1cc(OC(F)(F)F)ccc1-c1cn(CCCN)c2ccc(CN3CCN(Cc4ccccc4Cl)CC3)cc12` [C271; HCl]: the EC50 with NCI-H460, in the assay on HT-29 and in the assay on MIA PaCa-2 was at most 5 µM each time.
As to `CC1(C)CCN(Cc2ccc3c(c2)c(-c2ccc(OC(F)(F)F)cc2CN)cn3CCCN)CC1` [C272; HCl], the EC50 in the assay on NCI-H460 was at most 5 µM; in the assay on HT-29, at most 5 µM; in the assay with MIA PaCa-2 it was 5 to 10 µM.
Consider `COc1cccc(CN2CCN(Cc3ccc4c(c3)c(-c3ccc(OC(F)(F)F)cc3CN)cn4C3CCNCC3)CC2)c1` [C274; HCl], for which the EC50 in the assay on NCI-H460, in the assay on HT-29 and in the assay on MIA PaCa-2 was at most 5 µM throughout.
Regarding `COc1cc(CN2CCN(Cc3ccc4c(c3)c(-c3ccc(OC(F)(F)F)cc3CN)cn4C3CCNCC3)CC2)cc(OC)c1` [C275; HCl], the EC50 in the assay on NCI-H460, in the assay with HT-29 and in the assay on MIA PaCa-2 was at most 5 µM each time.
With `NCCCn1cc(-c2ccc(OC(F)(F)F)cc2CN)c2cc(CN3CCCC(NCC(F)(F)F)C3)ccc21` (stereo not drawn) [C276; HCl], the figures for the EC50 with NCI-H460, with HT-29 and in the assay on MIA PaCa-2 were at most 5 µM, 5 to 10 µM and 5 to 10 µM, respectively.
For the molecule `COc1cccc(NC2CCN(Cc3ccc4c(c3)c(-c3ccc(OC(F)(F)F)cc3CN)cn4CCCN)CC2)c1` [C277; HCl], the EC50 in the assay on NCI-H460, in the assay on HT-29 and in the assay with MIA PaCa-2 was at most 5 µM throughout.
Regarding `COc1cc(NC2CCN(Cc3ccc4c(c3)c(-c3ccc(OC(F)(F)F)cc3CN)cn4CCCN)CC2)cc(OC)c1` [C278; HCl], the EC50 in the assay with NCI-H460, with HT-29 and with MIA PaCa-2 was at most 5 µM in each case.
As to `COc1cccc(CC2CN(Cc3ccc4c(c3)c(-c3ccc(OC(F)(F)F)cc3CN)cn4CCCN)C2)c1` [C279; Formic Acid], the EC50 in the assay with NCI-H460, in the assay with HT-29 and in the assay on MIA PaCa-2 was at most 5 µM in each case.
For the molecule `COc1cccc(OC2CCN(Cc3ccc4c(c3)c(-c3ccc(OC(F)(F)F)cc3CN)cn4CCCN)CC2)c1` [C280; HCl], the EC50 in the assay on NCI-H460, with HT-29 and in the assay on MIA PaCa-2 was at most 5 µM in each case.
Turning to `COc1cc(OC)cc(OC2CCN(Cc3ccc4c(c3)c(-c3ccc(OC(F)(F)F)cc3CN)cn4CCCN)CC2)c1` [C281; HCl], the EC50 in the assay on NCI-H460, in the assay on HT-29 and in the assay with MIA PaCa-2 was at most 5 µM in each case.
Regarding `NCCCn1cc(-c2ccc(OC(F)(F)F)cc2CN)c2cc(CN3CCSCC3)ccc21` [C282; HCl], the EC50 with NCI-H460, with HT-29 and in the assay with MIA PaCa-2 was at most 5 µM throughout.
In the case of `COc1cccc(C(C)(C)N2CCN(Cc3ccc4c(c3)c(-c3ccc(OC(F)(F)F)cc3CN)cn4CCCN)CC2)c1` [C283; HCl], the EC50 in the assay on NCI-H460, in the assay with HT-29 and in the assay on MIA PaCa-2 was at most 5 µM each time.
In the case of `COc1ccc(-c2cn(CCCN)c3ccc(CN4CCN(Cc5ccccc5Cl)CC4)cc23)c(CN(C)C)c1` [C284; HCl], the EC50 in the assay with NCI-H460, with HT-29 and with MIA PaCa-2 was at most 5 µM throughout.
Regarding `COc1cc(OC)cc(C(C)(C)N2CCN(Cc3ccc4c(c3)c(-c3ccc(OC(F)(F)F)cc3CN)cn4CCCN)CC2)c1` [C285; HCl], the concentration giving a half-maximal response (EC50) in the assay on NCI-H460, with HT-29 and in the assay on MIA PaCa-2 was at most 5 µM each time.
Turning to `COc1ccc(-c2cn(CCCN)c3ccc(CN4CCN(Cc5ccccc5Cl)CC4)cc23)c(CNS(C)(=O)=O)c1` [C287; HCl], the half-maximal effective concentration (EC50) in the assay with NCI-H460, in the assay with HT-29 and in the assay on MIA PaCa-2 was at most 5 µM in each case.
Turning to `NCCCn1cc(-c2ccc(OC(F)(F)F)cc2CN)c2cc(CN3CCS(=O)(=O)CC3)ccc21` [C288; HCl], the EC50 in the assay on NCI-H460, with HT-29 and with MIA PaCa-2 was at most 5 µM throughout.
For the molecule `NCCCn1cc(-c2c(F)cccc2C(N)=O)c2cc(CN3CCN(Cc4ccccc4Cl)CC3)ccc21` [C289; HCl], the EC50 in the assay with NCI-H460, with HT-29 and in the assay on MIA PaCa-2 was 5 to 10 µM throughout.
As to `NCCCn1cc(-c2ccc(OC(F)(F)F)cc2CN)c2cc(CN3CCC(O)CC3)ccc21` [C290; HCl], the EC50 with NCI-H460, in the assay with HT-29 and in the assay with MIA PaCa-2 was 5 to 10 µM in each case.
In the case of `COc1cccc(CN2CCC(Cc3ccc4c(c3)c(-c3ccc(OC(F)(F)F)cc3CN)cn4CCCN)CC2)c1` [C291; HCl], the EC50 with NCI-H460, in the assay with HT-29 and in the assay with MIA PaCa-2 was at most 5 µM each time.
On to `NCCCn1cc(-c2ccc(OC(F)(F)F)cc2)c2cc(CN3CCS(=O)(=O)CC3)ccc21` [C292; Formic Acid], for which the EC50 in the assay on NCI-H460 was at most 5 µM; in the assay on HT-29, 5 to 10 µM; in the assay on MIA PaCa-2 it was at most 5 µM.
On to `NCCCn1cc(-c2ccc(OC(F)(F)F)cc2)c2cc(CN3CCSCC3)ccc21` [C293; HCl], for which the EC50 in the assay on NCI-H460, in the assay on HT-29 and with MIA PaCa-2 was at most 5 µM in each case.
As to `COc1cccc(CC2(CO)CCN(Cc3ccc4c(c3)c(-c3ccc(OC(F)(F)F)cc3CN)cn4CCCN)CC2)c1` [C294; HCl], the EC50 with NCI-H460, in the assay with HT-29 and in the assay with MIA PaCa-2 was at most 5 µM each time.
In the case of `NCCCn1cc(-c2ccc(OC(F)(F)F)cc2)c2cc(CN3CCC(O)CC3)ccc21` [C295; HCl], the concentration giving a half-maximal response (EC50) in the assay with NCI-H460, in the assay on HT-29 and in the assay on MIA PaCa-2 was at most 5 µM throughout.
For the molecule `COc1cccc(CN(C)CCN(C)Cc2ccc3c(c2)c(-c2ccc(OC(F)(F)F)cc2CN)cn3CCCN)c1` [C296; HCl], the EC50 with NCI-H460, in the assay on HT-29 and with MIA PaCa-2 was at most 5 µM in each case.
With `COc1cc(CN(C)CCN(C)Cc2ccc3c(c2)c(-c2ccc(OC(F)(F)F)cc2CN)cn3CCCN)cc(OC)c1` [C297; HCl], the EC50 in the assay with NCI-H460, in the assay on HT-29 and in the assay on MIA PaCa-2 was at most 5 µM throughout.
With `COc1cccc(CCCCN(C)Cc2ccc3c(c2)c(-c2ccc(OC(F)(F)F)cc2CN)cn3CCCN)c1` [C298; HCl], the EC50 in the assay with NCI-H460 is at most 5 µM; in the assay with HT-29, at most 5 µM; in the assay with MIA PaCa-2, 5 to 10 µM.

The EC50 is the concentration giving half of the maximal effect. The low end stands for a more potent agent, the high end for a less potent agent.

(Values after patent publication US20170158702A1, “MULTIVALENT RAS BINDING COMPOUNDS” (KYRAS THERAPEUTICS, INC., priority 2015, published 2017).)
